Format in all cases: biochemical
For assay [1], the target named is T1, SIK2 (Homo sapiens, UniProt Q9H0K1).
T1 construct: purchased Life Technologies
The assay can be described thus: SIK2 kinase assay, IMAP fluorescence polarization. Particulars: 50 or 100 μM ATP, average. As for the experimental part:
(§1) SIK2, SIK1, SIK3, Abl, Src and EPHA2 Kinase Assays
(§2) SIK2, SIK1, SIK3, Abl, Src and EPHA2 assays were performed using an IMAP fluorescence polarization assay format (Molecular Devices Inc.). 0.6-13 nM of each kinase (Life Technologies) was incubated for 60 min at room temperature with 100 nM of either FAM-Abltide, FAM-Srctide or FAM-HDAC protein derived peptide (synthesized by Alta Biosciences, Birmingham UK). Assays were carried out in the presence of 50 or 100 μM ATP in either 20 mM Tris buffer (pH 7.2) containing 4 mM MgCl2, 0.2% BSA and 2 mM DTT (SIK2, SIK1, SIK3, Abl, Src); or 20 mM Tris buffer (pH 8.5) containing 20 mM MgCl2, 0.5% BSA, 0.2% Triton and 5 mM DTT (EPHA2). Typically, dose response analyses were performed over concentration ranges from 0.00005-1 μM. Reactions were stopped by adding 2 assay volumes of 0.25% (v/v) IMAP binding reagent in either an 85:15 ratio (SIK2, SIK1, SIK3, Abl, EPHA2) or 30:70 ratio (Src) of IMAP binding buffers A and B (Molecular Devices). After incubation to allow the detection reagents to bind to the phosphorylated peptide, fluorescence polarization was measured on a Tecan Infinite plate reader at excitation (470 nm) and emission (530 nm) wavelengths. Inhibition was calculated using no inhibitor and no enzyme controls as 0 and 100% inhibition, respectively.
(§3) Table 3 provides details of the inhibitory constant (nM) of compounds of the invention at SIK1, SIK2 and SIK3 and other kinases.
(In general: Polarisation of emitted light reports the rotation of a fluorescent probe.)

Assay [2] deals with T2, Abl (Homo sapiens, UniProt P00519).
T2 construct: purchased Life Technologies
T2 sequence (P00519 whole entry): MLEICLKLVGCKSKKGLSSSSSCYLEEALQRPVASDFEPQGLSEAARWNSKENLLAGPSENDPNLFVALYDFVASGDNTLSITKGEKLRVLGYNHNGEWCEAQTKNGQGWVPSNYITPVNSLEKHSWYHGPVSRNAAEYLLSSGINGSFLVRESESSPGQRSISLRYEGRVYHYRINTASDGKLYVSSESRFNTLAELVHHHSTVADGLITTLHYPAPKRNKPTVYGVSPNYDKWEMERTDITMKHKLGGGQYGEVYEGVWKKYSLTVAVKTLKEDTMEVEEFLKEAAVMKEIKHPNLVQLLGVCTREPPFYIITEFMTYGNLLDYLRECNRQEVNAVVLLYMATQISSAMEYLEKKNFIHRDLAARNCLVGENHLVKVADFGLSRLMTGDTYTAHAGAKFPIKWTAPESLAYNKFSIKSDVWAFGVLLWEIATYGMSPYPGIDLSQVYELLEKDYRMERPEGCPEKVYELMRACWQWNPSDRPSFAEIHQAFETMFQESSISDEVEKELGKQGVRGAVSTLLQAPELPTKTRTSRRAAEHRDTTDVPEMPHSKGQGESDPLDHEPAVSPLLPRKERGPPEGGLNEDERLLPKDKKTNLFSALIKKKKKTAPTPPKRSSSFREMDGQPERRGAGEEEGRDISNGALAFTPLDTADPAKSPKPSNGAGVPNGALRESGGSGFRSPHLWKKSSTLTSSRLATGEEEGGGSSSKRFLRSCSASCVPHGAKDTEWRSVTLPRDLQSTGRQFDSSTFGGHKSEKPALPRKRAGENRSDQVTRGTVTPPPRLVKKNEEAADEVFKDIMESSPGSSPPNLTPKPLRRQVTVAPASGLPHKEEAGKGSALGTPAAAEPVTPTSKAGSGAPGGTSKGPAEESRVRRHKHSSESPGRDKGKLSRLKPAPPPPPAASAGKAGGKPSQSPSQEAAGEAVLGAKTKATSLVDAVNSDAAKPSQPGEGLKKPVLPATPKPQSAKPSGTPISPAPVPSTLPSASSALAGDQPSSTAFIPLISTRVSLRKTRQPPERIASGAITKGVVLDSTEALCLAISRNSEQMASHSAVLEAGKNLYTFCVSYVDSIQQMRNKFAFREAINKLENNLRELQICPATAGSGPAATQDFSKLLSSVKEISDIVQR
The assay is described as follows: Abl kinase assay, IMAP fluorescence polarization. Particulars: 50 or 100 μM ATP, average. As for the experimental part: as §1, §2, §3

The target of assay [3] is T3, SIK1 (Homo sapiens, UniProt P57059).
T3 construct: purchased Life Technologies
T3 sequence (P57059 whole entry): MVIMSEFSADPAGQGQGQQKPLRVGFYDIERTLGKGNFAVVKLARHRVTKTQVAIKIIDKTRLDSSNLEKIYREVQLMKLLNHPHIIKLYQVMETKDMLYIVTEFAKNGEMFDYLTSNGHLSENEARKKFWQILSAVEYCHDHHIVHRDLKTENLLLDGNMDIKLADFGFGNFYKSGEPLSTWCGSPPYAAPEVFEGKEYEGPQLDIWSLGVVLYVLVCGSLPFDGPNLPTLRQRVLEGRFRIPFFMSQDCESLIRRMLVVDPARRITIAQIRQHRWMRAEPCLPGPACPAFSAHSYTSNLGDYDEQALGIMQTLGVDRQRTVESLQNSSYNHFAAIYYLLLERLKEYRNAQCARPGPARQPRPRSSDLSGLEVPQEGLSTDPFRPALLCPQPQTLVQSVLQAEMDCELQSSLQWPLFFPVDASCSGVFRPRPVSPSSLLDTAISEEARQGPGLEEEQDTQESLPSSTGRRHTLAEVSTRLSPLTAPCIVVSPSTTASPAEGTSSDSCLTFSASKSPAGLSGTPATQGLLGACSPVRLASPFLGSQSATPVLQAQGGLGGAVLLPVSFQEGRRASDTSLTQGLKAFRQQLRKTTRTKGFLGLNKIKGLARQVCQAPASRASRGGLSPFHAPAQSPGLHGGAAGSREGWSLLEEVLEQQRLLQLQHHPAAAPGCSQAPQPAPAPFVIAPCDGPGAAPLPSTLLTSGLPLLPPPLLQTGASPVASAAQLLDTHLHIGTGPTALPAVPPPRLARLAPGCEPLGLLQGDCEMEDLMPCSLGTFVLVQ
The assay can be described thus: SIK1 kinase assay, IMAP fluorescence polarization. Particulars: 50 or 100 μM ATP, average. How it is done:
as §1, §2, §3

Assay [4] has as its target T4, SIK3 (Homo sapiens, UniProt Q9Y2K2).
T4 construct: purchased Life Technologies
The assay can be described thus: SIK3 kinase assay, IMAP fluorescence polarization. Particulars: 50 or 100 μM ATP, average. How it is done: as §1, §2, §3

For assay [5], the target named is T5, Src (Homo sapiens, UniProt P12931).
T5 construct: purchased Life Technologies
T5 sequence (P12931 whole entry): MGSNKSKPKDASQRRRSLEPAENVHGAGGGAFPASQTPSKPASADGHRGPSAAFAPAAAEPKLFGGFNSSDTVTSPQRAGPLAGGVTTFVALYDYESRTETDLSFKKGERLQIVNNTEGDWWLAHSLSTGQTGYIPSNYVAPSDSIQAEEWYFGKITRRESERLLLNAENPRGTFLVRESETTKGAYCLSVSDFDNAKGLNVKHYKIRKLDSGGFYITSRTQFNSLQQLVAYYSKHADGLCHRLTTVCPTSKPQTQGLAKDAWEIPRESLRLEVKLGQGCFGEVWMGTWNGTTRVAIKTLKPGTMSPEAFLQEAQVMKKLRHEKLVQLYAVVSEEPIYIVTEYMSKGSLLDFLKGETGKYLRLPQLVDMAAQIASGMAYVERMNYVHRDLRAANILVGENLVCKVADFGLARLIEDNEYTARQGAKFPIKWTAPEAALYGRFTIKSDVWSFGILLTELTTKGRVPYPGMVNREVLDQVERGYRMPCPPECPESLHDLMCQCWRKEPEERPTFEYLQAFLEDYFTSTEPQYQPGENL
The assay can be described thus: Src kinase assay, IMAP fluorescence polarization. Particulars: 50 or 100 μM ATP, average. As for the experimental part:
as §1, §2, §3

Assay [6] addresses T6, EPHA2 (Homo sapiens, UniProt P29317).
T6 construct: purchased Life Technologies
The assay is described as follows: EPHA2 kinase assay, IMAP fluorescence polarization. Particulars: 50 or 100 μM ATP, Tris pH 8.5, average. As for the experimental part: as §1, §2, §3

A value given as a limit tells only on which side of the number the result lay.

T1 sequence (Q9H0K1 whole entry): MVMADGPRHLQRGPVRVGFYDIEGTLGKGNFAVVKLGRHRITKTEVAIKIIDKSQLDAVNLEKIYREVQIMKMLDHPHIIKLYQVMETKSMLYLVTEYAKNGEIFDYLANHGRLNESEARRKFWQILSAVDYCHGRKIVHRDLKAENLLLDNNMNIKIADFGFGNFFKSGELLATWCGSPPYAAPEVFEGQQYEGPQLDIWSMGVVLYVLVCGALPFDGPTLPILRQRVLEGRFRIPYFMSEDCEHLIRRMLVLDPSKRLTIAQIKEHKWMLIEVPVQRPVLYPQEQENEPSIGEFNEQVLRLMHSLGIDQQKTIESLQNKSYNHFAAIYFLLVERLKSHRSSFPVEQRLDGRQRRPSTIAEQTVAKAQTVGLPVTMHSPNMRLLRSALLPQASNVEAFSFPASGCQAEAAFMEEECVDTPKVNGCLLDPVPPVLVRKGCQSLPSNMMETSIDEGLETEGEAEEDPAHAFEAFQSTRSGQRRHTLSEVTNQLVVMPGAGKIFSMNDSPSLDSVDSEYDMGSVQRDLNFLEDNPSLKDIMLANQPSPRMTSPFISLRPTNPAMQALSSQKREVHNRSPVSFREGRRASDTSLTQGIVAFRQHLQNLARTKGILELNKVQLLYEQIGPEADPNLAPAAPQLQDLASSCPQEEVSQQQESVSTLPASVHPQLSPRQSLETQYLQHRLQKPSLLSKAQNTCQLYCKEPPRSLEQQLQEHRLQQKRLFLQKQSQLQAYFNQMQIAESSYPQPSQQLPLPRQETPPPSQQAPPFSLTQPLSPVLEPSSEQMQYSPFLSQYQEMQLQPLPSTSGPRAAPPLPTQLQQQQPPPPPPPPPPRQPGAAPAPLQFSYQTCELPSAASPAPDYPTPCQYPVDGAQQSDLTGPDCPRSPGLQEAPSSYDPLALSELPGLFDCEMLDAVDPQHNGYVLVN
T4 sequence (Q9Y2K2 whole entry): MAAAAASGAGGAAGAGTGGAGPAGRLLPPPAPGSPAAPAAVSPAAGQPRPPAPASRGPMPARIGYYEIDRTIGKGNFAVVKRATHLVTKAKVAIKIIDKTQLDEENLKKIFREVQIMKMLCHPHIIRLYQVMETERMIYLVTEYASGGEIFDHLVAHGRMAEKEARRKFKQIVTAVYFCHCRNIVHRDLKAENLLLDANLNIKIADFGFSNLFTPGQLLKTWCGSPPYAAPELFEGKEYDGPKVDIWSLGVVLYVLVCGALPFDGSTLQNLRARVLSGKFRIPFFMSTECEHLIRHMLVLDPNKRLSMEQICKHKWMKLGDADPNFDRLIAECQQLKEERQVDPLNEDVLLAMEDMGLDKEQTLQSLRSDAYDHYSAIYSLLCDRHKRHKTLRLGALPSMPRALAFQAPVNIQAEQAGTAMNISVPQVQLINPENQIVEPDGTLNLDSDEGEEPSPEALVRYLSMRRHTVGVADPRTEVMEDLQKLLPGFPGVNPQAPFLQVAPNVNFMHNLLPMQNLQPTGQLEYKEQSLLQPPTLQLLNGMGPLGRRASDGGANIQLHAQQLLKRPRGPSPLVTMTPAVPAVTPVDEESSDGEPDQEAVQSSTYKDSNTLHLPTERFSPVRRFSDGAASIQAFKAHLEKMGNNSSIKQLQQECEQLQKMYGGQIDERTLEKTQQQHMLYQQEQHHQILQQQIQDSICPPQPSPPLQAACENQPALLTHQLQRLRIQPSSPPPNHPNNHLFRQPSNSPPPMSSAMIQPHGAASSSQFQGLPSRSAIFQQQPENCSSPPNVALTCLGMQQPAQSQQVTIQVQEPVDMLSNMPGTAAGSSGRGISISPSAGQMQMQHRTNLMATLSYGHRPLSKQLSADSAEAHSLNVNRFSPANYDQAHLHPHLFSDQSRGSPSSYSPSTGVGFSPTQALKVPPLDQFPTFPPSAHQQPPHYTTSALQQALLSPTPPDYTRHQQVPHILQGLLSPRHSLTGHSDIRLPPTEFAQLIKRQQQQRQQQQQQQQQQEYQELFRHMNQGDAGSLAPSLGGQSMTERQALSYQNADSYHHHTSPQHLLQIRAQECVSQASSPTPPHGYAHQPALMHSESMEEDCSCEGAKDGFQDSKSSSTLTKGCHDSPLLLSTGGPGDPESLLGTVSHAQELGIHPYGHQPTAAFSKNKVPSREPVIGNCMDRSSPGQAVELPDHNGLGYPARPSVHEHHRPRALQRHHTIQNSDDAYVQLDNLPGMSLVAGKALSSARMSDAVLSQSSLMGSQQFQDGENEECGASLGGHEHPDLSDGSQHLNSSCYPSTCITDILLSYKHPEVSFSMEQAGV

On to `Cc1cccc(F)c1-c1cc(NC[C@@H]2CCNC2)c2cc(N)ncc2c1` [Example 6, 7-(2-fluoro-6-methyl-phenyl)-N5-[[(3R)-pyrrolidin-3-yl]methyl]isoquinoline-3,5-diamine], for which the Ki (usually the equilibrium dissociation constant of an inhibitor or competing ligand from its target) in assay [1] stood at 0.0517 nM; in assay [2], 0.298 nM; in assay [3], 0.31 nM; in assay [4], 0.57 nM; in assay [5] it was 145 nM; in assay [6], 49.5 nM.

For the compound `Cc1cccc(F)c1-c1cc(N2CC[C@@H](N(C)C)C2)c2cc(N)ncc2c1` [Example 58, 5-[(3R)-3-(dimethylamino)pyrrolidin-1-yl]-7-(2-fluoro-6-methyl-phenyl)isoquinolin-3-amine], the Ki in assay [1] is 1.11 nM; in assay [2], 107 nM; in assay [3], 5.37 nM; in assay [4], 8.64 nM; in assay [5] it was 1400 nM; in assay [6], more than 1000 nM.

Turning to `Cc1cccc(F)c1-c1ccc2c(C(=O)NC3CCN(C)CC3)c(N)ncc2c1` [Example 87, 3-Amino-7-(2-fluoro-6-methyl-phenyl)-N-(1-methyl-4-piperidyl)isoquinoline-4-carboxamide], the inhibition constant (Ki) in assay [1] is 9.99 nM; in assay [2], 667 nM; in assay [5], 574 nM.

`Cc1cccc(Cl)c1-c1ccc2c(C(=O)N[C@@H]3CCN(C)C3)c(N)ncc2c1` [Example 97, 3-amino-7-(2-chloro-6-methyl-phenyl)-N-[(3R)-1-methylpyrrolidin-3-yl]isoquinoline-4-carboxamide]: the Ki in assay [1] is 13 nM.

For `Cc1cccc(Cl)c1-c1ccc2c(C(=O)N[C@H]3CCNC3)c(N)ncc2c1` [Example 43, 3-amino-7-(2-chloro-6-methyl-phenyl)-N-[(3S)-pyrrolidin-3-yl]isoquinoline-4-carboxamide], the inhibition constant (Ki) in assay [1] turned out to be 6.54 nM; in assay [2], 345 nM; in assay [5], 136 nM.

In assay [1], `Cc1cccc(Cl)c1-c1ccc2c(C(=O)NCC3CN(C)C3)c(N)ncc2c1` [Example 95, 3-amino-7-(2-chloro-6-methyl-phenyl)-N-[(1-methylazetidin-3-yl)methyl]isoquinoline-4-carboxamide] yielded an inhibition constant Ki of 31.6 nM.

Turning to `Cc1cccc(Cl)c1-c1ccc2c(C(=O)N[C@H]3CCN(C)C3)c(N)ncc2c1` [Example 98, 3-amino-7-(2-chloro-6-methyl-phenyl)-N-[(3S)-1-methylpyrrolidin-3-yl]isoquinoline-4-carboxamide], the results for the Ki in assay [1], in assay [2] and in assay [5] were 12.8 nM, 481 nM and 317 nM, respectively.

In assay [1], `Cc1cccc(F)c1-c1ccc2c(C(=O)NCC3CN(C)C3)c(N)ncc2c1` [Example 90, 3-amino-7-(2-fluoro-6-methyl-phenyl)-N-[(1-methylazetidin-3-yl)methyl]isoquinoline-4-carboxamide] displayed a Ki of 32.3 nM.

In the case of `Cc1cccc(F)c1-c1ccc2c(C(=O)NC3CCNCC3)c(N)ncc2c1` [Example 35, 3-amino-7-(2-fluoro-6-methyl-phenyl)-N-(4-piperidyl)isoquinoline-4-carboxamide], the inhibition constant Ki in assay [1] was found to be 11.4 nM; in assay [2], 446 nM; in assay [5], 564 nM.

Compound `Cc1cccc(F)c1-c1ccc2c(C(=O)N[C@@H]3CCNC3)c(N)ncc2c1` [Example 36, 3-amino-7-(2-fluoro-6-methyl-phenyl)-N-[(3R)-pyrrolidin-3-yl]isoquinoline-4-carboxamide] displayed an inhibition constant (Ki) in assay [1] of 18.2 nM.

Regarding `Cc1cccc(Cl)c1-c1ccc2c(C(=O)NCC3CNC3)c(N)ncc2c1` [Example 39, 3-amino-N-(azetidin-3-ylmethyl)-7-(2-chloro-6-methyl-phenyl)isoquinoline-4-carboxamide], the inhibition constant (Ki) in assay [1] is 19.6 nM.

In assay [1], `Nc1cc2c(NC3CCNCC3)cc(-c3c(F)cccc3Cl)cc2cn1` [Example 20, 7-(2-chloro-6-fluoro-phenyl)-N5-(4-piperidyl)isoquinoline-3,5-diamine] came in with an inhibition constant (Ki) of 26.1 nM.

Regarding `Cc1cccc(Cl)c1-c1ccc2c(C(=O)NC3CNC3)c(N)ncc2c1` [Example 38, 3-amino-N-(azetidin-3-yl)-7-(2-chloro-6-methyl-phenyl)isoquinoline-4-carboxamide], the Ki in assay [1] worked out at 11.3 nM; in assay [2], 88.5 nM; in assay [5], 137 nM; in assay [6], 764 nM.

`Cc1cccc(F)c1-c1ccc2c(C(=O)N[C@@H]3CCN(C)C3)c(N)ncc2c1` [Example 92, 3-amino-7-(2-fluoro-6-methyl-phenyl)-N-[(3R)-1-methylpyrrolidin-3-yl]isoquinoline-4-carboxamide] had a Ki in assay [1] of 16.8 nM.

As for `Cc1cccc(F)c1-c1ccc2c(C(=O)NCC3CCNCC3)c(N)ncc2c1` [Example 34, 3-amino-7-(2-fluoro-6-methyl-phenyl)-N-(4-piperidylmethyl)isoquinoline-4-carboxamide], the affinity in assay [1], expressed as Ki, was 41.5 nM.

For the compound `Cc1cccc(Cl)c1-c1ccc2c(C(=O)NCC3CCNCC3)c(N)ncc2c1` [Example 40, 3-amino-7-(2-chloro-6-methyl-phenyl)-N-(4-piperidylmethyl)isoquinoline-4-carboxamide], the affinity in assay [1], expressed as Ki, was 39.5 nM.

`Cc1cccc(F)c1-c1ccc2c(C(=O)NCC3CNC3)c(N)ncc2c1` [Example 33, 3-amino-N-(azetidin-3-ylmethyl)-7-(2-fluoro-6-methyl-phenyl)isoquinoline-4-carboxamide]: in assay [1], the inhibitory constant (Ki) was 11.8 nM.

On to `Cc1cccc(F)c1-c1ccc2c(C(=O)N[C@H]3CCNC3)c(N)ncc2c1` [Example 37, 3-amino-7-(2-fluoro-6-methyl-phenyl)-N-[(3S)-pyrrolidin-3-yl]isoquinoline-4-carboxamide], for which, in assay [1], the Ki came to 7.74 nM.

`Cc1cccc(F)c1-c1cc(N2CC[C@@H](CN(C)C)C2)c2cc(N)ncc2c1` [Example 81, 5-[(3S)-3-[(dimethylamino)methyl]pyrrolidin-1-yl]-7-(2-fluoro-6-methyl-phenyl) isoquinolin-3-amine]: the inhibitory constant (Ki) in assay [1] was determined as 7.68 nM; in assay [2], 296 nM; in assay [5], 1350 nM.

Compound `Cc1cccc(F)c1-c1ccc2c(C(=O)N[C@H]3CCN(C)C3)c(N)ncc2c1` [Example 93, 3-amino-7-(2-fluoro-6-methyl-phenyl)-N-[(3S)-1-methylpyrrolidin-3-yl]isoquinoline-4-carboxamide] came in with a Ki in assay [1] of 26.8 nM.

In the case of `Cc1cccc(F)c1-c1cc(N2CC[C@H](O)C2)c2cc(N)ncc2c1` [Example 105, (3S)-1-[3-amino-7-(2-fluoro-6-methyl-phenyl)-5-isoquinolyl]pyrrolidin-3-ol], the inhibition constant (Ki) in assay [1] is 38.1 nM; in assay [2] it was 169 nM; in assay [5], more than 10000 nM.

For the compound `CN1CCC(Nc2cc(-c3c(F)cccc3Cl)cc3cnc(N)cc23)CC1` [Example 64, 7-(2-Chloro-6-fluoro-phenyl)-N5-(1-methyl-4-piperidyl)isoquinoline-3,5-diamine], the results for the Ki in assay [1], in assay [2] and in assay [5] were 11.7 nM, more than 10000 nM and 2420 nM, respectively.

Compound `Cc1cccc(Cl)c1-c1ccc2c(C(=O)NCC3CCN(C)CC3)c(N)ncc2c1` [Example 96, 3-amino-7-(2-chloro-6-methyl-phenyl)-N-[(1-methyl-4-piperidyl)methyl] isoquinoline-4-carboxamide] showed an inhibitory constant (Ki) in assay [1] of 54.5 nM.

`Cc1cccc(F)c1-c1cc(NC2CCCCC2)c2cc(N)ncc2c1` [Example 111, N5-cyclohexyl-7-(2-fluoro-6-methyl-phenyl)isoquinoline-3,5-diamine]: the inhibitory constant (Ki) in assay [1] came to 83.5 nM.

Compound `Cc1cccc(Cl)c1-c1ccc2c(C(=O)NC3CN(C)C3)c(N)ncc2c1` [Example 94, 3-amino-7-(2-chloro-6-methyl-phenyl)-N-(1-methylazetidin-3-yl)isoquinoline-4-carboxamide] returned a Ki in assay [1] of 14.4 nM.

As for `Cc1cccc(F)c1-c1ccc2c(C(=O)NC3CNC3)c(N)ncc2c1` [Example 32, 3-Amino-N-(azetidin-3-yl)-7-(2-fluoro-6-methyl-phenyl)isoquinoline-4-carboxamide], the inhibitory constant (Ki) in assay [1] was found to be 27.3 nM; in assay [2], 487 nM; in assay [5], 723 nM.

With `Cc1cccc(Cl)c1-c1ccc2c(C(=O)NC3CCNCC3)c(N)ncc2c1` [Example 41, 3-amino-7-(2-chloro-6-methyl-phenyl)-N-(4-piperidyl)isoquinoline-4-carboxamide], the Ki is 3.75 nM in assay [1]; 190 nM in assay [2]; 6.07 nM in assay [3]; 61.7 nM in assay [4]; 58.4 nM in assay [5].

Compound `Cc1cccc(F)c1-c1ccc2c(C(=O)NCC3CCN(C)CC3)c(N)ncc2c1` [Example 91, 3-amino-7-(2-fluoro-6-methyl-phenyl)-N-[(1-methyl-4-piperidyl)methyl] isoquinoline-4-carboxamide] showed an inhibitory constant (Ki) in assay [1] of 47.6 nM.
